Experimental data reported in patent publication EP0371733A2, “Dopamine-beta-hydroxylase inhibitors” (SMITHKLINE BEECHAM CORPORATION, priority 1988, dated 1990).

Columns and labels:
[1] = target: T1, DBH (Homo sapiens, UniProt P09172); experiment: in vitro DBH inhibition, conversion of tyramine to octopamine in the presence of DBH; assay type: biochemical; conditions: concentration at which DBH activity was halved; octopamine assayed by absorbence at 330 nm; read-out: DBH IC₅₀
T1 sequence (P09172 1-617): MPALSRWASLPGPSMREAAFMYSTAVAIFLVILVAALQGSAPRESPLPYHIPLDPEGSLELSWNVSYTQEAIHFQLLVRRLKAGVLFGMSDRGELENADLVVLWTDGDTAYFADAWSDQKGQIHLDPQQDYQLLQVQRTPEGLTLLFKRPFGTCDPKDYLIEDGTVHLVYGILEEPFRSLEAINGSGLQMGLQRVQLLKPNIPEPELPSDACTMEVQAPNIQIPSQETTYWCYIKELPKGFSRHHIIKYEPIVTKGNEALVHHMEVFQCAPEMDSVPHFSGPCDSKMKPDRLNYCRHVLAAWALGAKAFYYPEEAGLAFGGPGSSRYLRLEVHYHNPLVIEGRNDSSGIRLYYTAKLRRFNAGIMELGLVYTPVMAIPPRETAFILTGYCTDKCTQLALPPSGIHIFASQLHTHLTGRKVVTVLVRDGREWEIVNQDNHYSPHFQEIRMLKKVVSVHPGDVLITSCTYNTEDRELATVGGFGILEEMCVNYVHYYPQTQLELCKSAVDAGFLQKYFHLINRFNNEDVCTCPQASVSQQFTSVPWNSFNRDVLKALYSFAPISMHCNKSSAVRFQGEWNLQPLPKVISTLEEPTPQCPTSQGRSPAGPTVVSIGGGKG
Description: Listed in Table I are compounds of the invention that were tested for in vitro DBH inhibition by a standard procedure for assaying conversion of tyramine to octopamine in the presence of DBH. J.J. Pisano, et al., Biochim. Biophys. Acta, 43, 566-568 (1960). Octopamine was assayed following sodium periodate oxidation to p-hydroxybenzaldehyde by measuring spectrophotometric absorbence at 330 nm. In Table I, inhibition is given in molar concentration of compound at which DBH activity was halved (IC₅₀). Fusaric acid, by this test has an IC₅₀ of 8 x 10⁻⁷M.

[2] = tested on: spontaneously hypertensive rats; experiment: mean arterial blood pressure in spontaneously hypertensive rats; assay type: in vivo; conditions: 50 mg/kg intraperitoneally, vs vehicle-treated controls
Description: Further, spontaneously hypertensive rats were treated with 3-(3-fluorophenylmethyl)-2-thiazolidinethione at a dose of 50 mg/kg intraperitoneally, and mean arterial blood pressure was monitored for 250 minutes using indwelling cannulae in the tail arteries. […] The maximal blood pressure reduction was approximately 20 mmHg.

[3] = in vitro screen; Weiffen et al., 1967; cited from earlier work
[4] = Teresawa et al., 1971; cited from earlier work
[5] = target: T1, DBH; conditions: Runti et al., 1980; cited from earlier work

Row | Compound | IC50 [1] [µM] | tuberculostatic activity [3] | further results
1 | Fc1cc(F)cc(CN2CCSC2=S)c1 [3-(3,5-Difluorophenylmethyl)-2-thiazolidinethione] | 13 ± 1 | – | –
2 | Fc1cccc(CN2CCSC2=S)c1 [3-(3-Fluorophenylmethyl)-2-thiazolidinethione] | 30 ± 3 | – | maximal blood pressure reduction ([2]; mean arterial blood pressure monitored for 250 minutes): approximately 20 mmHg; time to significant blood pressure reductions following treatment [2]: ≤ 30 min
3 | S=C1SCCN1Cc1ccccc1 [3-Phenylmethyl-2-thiazolidinethione] | 72 ± 13 | poor activity | –
4 | S=C1SCCN1CCc1ccccc1 [3-phenethylthiazolidinethione, reference compound] | – | poor activity | –
5 | CCCCc1ccc(C(=O)O)nc1 [Fusaric acid] | – | – | toxic effects [4]: hepatotoxic
6 | phenylpicolinic acid | – | – | inhibitory activity relative to fusaric acid [5]: twice the inhibitory activity of fusaric acid
